Our source for the IC50 values is US7524847B2, “Fused 1,3-dihydro-imidazole ring compounds” (Eisai R&D Management Co., Ltd., priority 2002, dated 2009).

Broadly, the IC50 is the concentration that inhibits the measured activity by half.

Each structure is given as a SMILES string. Structures can show the parent of a compound that is named as a salt.

For this test, the target named is T1, DPP-IV obtained from pig kidney (Sus scrofa, UniProt P22411).
T1 construct: DPP-IV obtained from pig kidney; from tissue; host or cells: pig kidney
T1 sequence (P22411 whole entry): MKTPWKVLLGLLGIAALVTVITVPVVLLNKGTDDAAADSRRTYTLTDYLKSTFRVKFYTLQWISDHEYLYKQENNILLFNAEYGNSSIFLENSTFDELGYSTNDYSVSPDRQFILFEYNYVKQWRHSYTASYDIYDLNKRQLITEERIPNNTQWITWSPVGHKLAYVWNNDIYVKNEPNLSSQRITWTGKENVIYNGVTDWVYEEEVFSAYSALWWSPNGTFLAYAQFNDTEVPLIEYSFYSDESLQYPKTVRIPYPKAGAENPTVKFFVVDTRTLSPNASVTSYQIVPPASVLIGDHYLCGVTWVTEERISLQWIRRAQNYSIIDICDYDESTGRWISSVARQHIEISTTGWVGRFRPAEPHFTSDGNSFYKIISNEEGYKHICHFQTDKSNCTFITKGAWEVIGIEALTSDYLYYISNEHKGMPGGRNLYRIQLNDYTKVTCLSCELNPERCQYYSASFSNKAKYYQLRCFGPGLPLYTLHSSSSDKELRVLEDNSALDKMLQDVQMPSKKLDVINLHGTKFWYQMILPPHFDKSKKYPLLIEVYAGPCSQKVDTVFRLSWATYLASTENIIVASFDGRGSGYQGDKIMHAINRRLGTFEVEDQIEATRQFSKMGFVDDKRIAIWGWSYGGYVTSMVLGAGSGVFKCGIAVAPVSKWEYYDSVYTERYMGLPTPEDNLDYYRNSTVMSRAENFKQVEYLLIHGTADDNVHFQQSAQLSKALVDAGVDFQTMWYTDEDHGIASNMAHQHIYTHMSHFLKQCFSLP
Put plainly: Measurement of DPPIV-inhibiting activity (in vitro experiment). Type of test: biochemical. Particulars: DPP-IV from pig kidney 10 mU/mL, substrate Gly-Pro-p-nitroanilide 0.33 mM, 20 min preincubation, 20 min reaction, absorbance 405 nm. How it is done: DPP-IV obtained from pig kidney was dissolved in a reaction buffer (50 mM Tris-HCl pH7.4, 0.1% BSA) at 10 mU/mL, and 110 μL of this was used. 15 μL of the drug obtained from the aforementioned Examples was added, and this was incubated at room temperature for 20 minutes, and then 25 μL of a 2 mM solution of Gly-Pro-p-nitroanilide (final concentration 0.33 mM) was added to start the enzymatic reaction. The reaction time was 20 minutes, and 1 N phosphoric acid solution (25 μL) was added to stop the reaction.
`CC#CCn1c(=O)n(-c2ccc(=O)n(C)c2)c2ncnc(N3CCNCC3)c21` [Example 68, 7-(2-Butynyl)-9-(1-methyl-6-oxo-1,6-dihydro-pyridin-3-yl)-6-(piperazin-1-yl)-7,9-dihydropurin-8-one trifluoroacetic acid salt] showed a concentration for half-maximal inhibition (IC50) of 187 nM. To `CC#CCn1c(=O)n(C)c2nc(Cl)nc(N3CCNCC3)c21` [Example 2, 7-(2-Butynyl)-2-chloro-9-methyl-6-(piperazin-1-yl)-7,9-dihydropurin-8-one trifluoroacetic acid salt] belongs 86.4 nM; to `CC#CCn1c(=O)n(C)c2nc(NCc3ccccc3)nc(N3CCNCC3)c21` [Example 17, 2-Benzylamino-7-(2-butynyl)-9-methyl-6-(piperazin-1-yl)-7,9-dihydropurin-8-one trifluoroacetic acid salt], 263 nM; to `CC#CCn1c(=O)n(C)c2nc(Oc3ccccc3)nc(N3CCNCC3)c21` [Example 12, 7-(2-Butynyl)-9-methyl-2-phenoxy-6-(piperazin-1-yl)-7,9-dihydropurin-8-one trifluoroacetic acid salt], 47.4 nM.

Turning to `C=CCn1c(=O)n(CC#CC)c2c(N3CCNCC3)nc(OCC)nc21` [Example 59, 9-Allyl-7-(2-butynyl)-2-ethoxy-6-(piperazin-1-yl)-7,9-dihydropurin-8-one trifluoroacetic acid salt], it took 119 nM to reach half-maximal inhibition (IC50). Turning to `CC#CCn1c(=O)n(-c2ccccc2)c2ncnc(N3CCNCC3)c21` [Example 62, 7-(2-Butynyl)-9-phenyl-6-(piperazin-1-yl)-7,9-dihydropurin-8-one trifluoroacetic acid salt], the IC50 is 139 nM. To `CC#CCn1c(=O)n(Cc2ccc(C#N)cc2)c2ncnc(N3CCNCC3)c21` [Example 73, 4-[7-(2-Butynyl)-8-oxo-6-(piperazin-1-yl)-7,8-dihydropurin-9-ylmethyl]benzonitrile trifluoroacetic acid salt] belongs 48.4 nM. To `CC#CCn1c(=S)n(C)c2ncnc(N3CCNCC3)c21` [Example 84, 7-(2-Butynyl)-9-methyl-6-(piperazin-1-yl)-7,9-dihydropurin-8-thione trifluoroacetic acid salt] belongs 13600 nM. To `CC#CCn1c(=O)n(CC2CC2)c2nc(Cl)nc(N3CCNCC3)c21` [Example 38, 7-(2-Butynyl)-2-chloro-9-cyclopropylmethyl-6-(piperazin-1-yl)-7,9-dihydropurin-8-one trifluoroacetic acid salt] belongs 150 nM. For `CC#CCn1c(=O)n(-c2ccccc2)c2nc(Cl)nc(N3CCNCC3)c21` [Example 41, 7-(2-Butynyl)-2-chloro-9-phenyl-6-(piperazin-1-yl)-7,9-dihydropurin-8-one trifluoroacetic acid salt], the IC50 amounted to 91.7 nM. Compound `CC#CCn1c(=O)n(C)c2nc(N(C)C)nc(N3CCNCC3)c21` [Example 4, 7-(2-Butynyl)-2-dimethylamino-9-methyl-6-(piperazin-1-yl)-7,9-dihydropurin-8-one trifluoroacetic acid salt] returned an IC50 of 334 nM. In turn, `CC#CCn1c(=O)n(CCC)c2nc(Cl)nc(N3CCNCC3)c21` [Example 30, 7-(2-Butynyl)-2-chloro-6-(piperazin-1-yl)-9-propyl-7,9-dihydropurin-8-one trifluoroacetic acid salt] displayed an IC50 of 132 nM.

With `CC#CCn1c(=O)n(-c2ccoc2)c2nc(Cl)nc(N3CCNCC3)c21` [Example 44, 7-(2-Butynyl)-2-chloro-9-(furan-3-yl)-6-(piperazin-1-yl)-7,9-dihydropurin-8-one trifluoroacetic acid salt], the IC50 was 132 nM. To `CC#CCn1c(=O)n(CC#N)c2nc(Cl)nc(N3CCNCC3)c21` [Example 32, [7-(2-Butynyl)-2-chloro-8-oxo-6-(piperazin-1-yl)-7,8-dihydropurin-9-yl]acetonitrile trifluoroacetic acid salt] belongs 212 nM. To `CC#CCn1c(=O)n(C)c2nc(OCc3ccccc3)nc(N3CCNCC3)c21` [Example 11, 2-Benzyloxy-7-(2-butynyl)-9-methyl-6-(piperazin-1-yl)-7,9-dihydropurin-8-one trifluoroacetic acid salt] belongs 179 nM; to `N#Cc1ccccc1Cn1c(=O)n(Cc2ccccc2)c2c(N3CCNCC3)ncc(Oc3ccccc3C(N)=O)c21` [Example 81, 2-[3-Benzyl-1-(2-cyanobenzyl)-2-oxo-4-piperazin-1-yl-2,3-dihydro-1H-imidazo[4.5-c]pyridin-7-yloxy]-benzamide trifluoroacetic acid salt], 409 nM.

For `CC#CCn1c(=O)n(C)c2ccnc(N3CCNCC3)c21` [Example 82, 3-(2-Butynyl)-1-methyl-4-piperazin-1-yl-1,3-dihydroimidazo[4.5-c]pyridin-2-one], the midpoint of inhibition, the IC50, lay at 5230 nM. To `CC#CCn1c(=O)n(-c2ccc(=O)[nH]c2)c2ncnc(N3CCNCC3)c21` [Example 67, 7-(2-Butynyl)-9-(6-oxo-16-dihydro-pyridin-3-yl)-6-(piperazin-1-yl)-7,9-dihydropurin-8-one trifluoroacetic acid salt] belongs 49.8 nM.

Regarding `CC#CCn1c(=O)n(Cc2ccccc2C#N)c2nc(OC)nc(N3CCNCC3)c21` [Example 50, 2-[7-(2-Butynyl)-2-methoxy-8-oxo-6-(piperazin-1-yl)-7,8-dihydropurin-9-ylmethyl]benzonitrile trifluoroacetic acid salt], it took 3.65 nM to reach half-maximal inhibition (IC50). To `CC#CCn1c(=O)n(C)c2nc(N(CC)CC)nc(N3CCNCC3)c21` [Example 3, 7-(2-Butynyl)-2-diethylamino-9-methyl-6-(piperazin-1-yl)-7,9-dihydropurin-8-one trifluoroacetic acid salt] belongs 325 nM. To `CC(C)=CCn1c(=O)n(C)c2ncnc(N3CCNCC3)c21` [Example 77, 9-Methyl-7-(3-methyl-2-butenyl)-6-(piperazin-1-yl)-7,9-dihydropurin-8-one trifluoroacetic acid salt] belongs 8130 nM.

Take `CC#CCn1c(=O)n(CC(=O)OC)c2nc(Cl)nc(N3CCNCC3)c21` [Example 40, [7-(2-Butynyl)-2-chloro-8-oxo-6-(piperazin-1-yl)-7,8-dihydropurin-9-yl]acetic acid methyl ester trifluoroacetic acid salt]: the IC50 is 89.6 nM. `CC#CCn1c(=O)[nH]c2nc(OC)nc(N3CCNCC3)c21` [Example 53, 7-(2-Butynyl)-2-methoxy-6-(piperazin-1-yl)-7,9-dihydropurin-8-one trifluoroacetic acid salt] showed an IC50 of 1370 nM. To `CC#CCn1c(=O)n(C)c2nc(O)nc(N3CCNCC3)c21` [Example 8, 7-(2-Butynyl)-2-hydroxy-9-methyl-6-(piperazin-1-yl)-7,9-dihydropurin-8-one trifluoroacetic acid salt] belongs 1160 nM; to `CC=CCn1c(=O)n(C)c2nc(Cl)nc(N3CCNCC3)c21` [Example 20, 7-(2-Butenyl)-2-chloro-9-methyl-6-(piperazin-1-yl)-7,9-dihydropurin-8-one trifluoroacetic acid salt], 642 nM; to `CC#CCn1c(=O)n(C)c2ncnc(N3CCNCC3)c21` [Example 76, 7-(2-Butynyl)-9-methyl-6-(piperazin-1-yl)-7,9-dihydropurin-8-one trifluoroacetic acid], 1060 nM. To `CC#CCn1c(=O)n(CCc2ccc(Br)cc2)c2nc(Cl)nc(N3CCNCC3)c21` [Example 35, 9-[2-(4-Bromophenyl)-ethyl]-7-(2-butynyl)-2-chloro-6-(piperazin-1-yl)-7,9-dihydropurin-8-one trifluoroacetic acid salt] belongs 26.6 nM; to `C#CCn1c(=O)n(CC#CC)c2c(N3CCNCC3)ncnc21` [Example 70, 7-(2-Butynyl)-6-(piperazin-1-yl)-9-(2-propynyl)-7,9-dihydropurin-8-one trifluoroacetic acid salt], 94.8 nM; to `CC#CCn1c(=O)n(C)c2nc(Cl)nc(N3CCCC(NC)C3)c21` (stereo not shown) [Example 28, 7-(2-Butynyl)-2-chloro-9-methyl-6-(3-methylamino-piperidin-1-yl)-7,9-dihydropurin-8-one trifluoroacetic acid salt], 89500 nM. Regarding `CC#CCn1c(=O)n(C)c2nc(Cl)nc(N3CCCC(N)C3)c21` (stereo not shown) [Example 27, 6-(3-Amino-piperidin-1-yl)-7-(2-butynyl)-2-chloro-9-methyl-7,9-dihydropurin-8-one trifluoroacetic acid salt], the half-maximal inhibitory concentration (IC50) came to 3140 nM. To `Cn1c(=O)n(Cc2ccccc2)c2c(N3CCNCC3)nc(Cl)nc21` [Example 21, 7-Benzyl-2-chloro-9-methyl-6-(piperazin-1-yl)-7,9-dihydropurin-8-one trifluoroacetic acid salt] belongs 2450 nM. To `CC#CCn1c(=O)n(C)c2c(Oc3ccccc3C(N)=O)cnc(N3CCNCC3)c21` [Example 83, 2-[3-(2-Butynyl)-1-methyl-2-oxo-4-piperazin-1-yl-2,3-dihydro-1H-imidazo[4.5-c]pyridin-7-yloxy]-benzamide trifluoroacetic acid salt] belongs 1130 nM; to `CC#CCn1c(=O)n(Cc2ccccc2C#N)c2nc(Cl)nc(N3CCNCC3)c21` [Example 29, 2-[7-(2-Butynyl)-2-chloro-8-oxo-6-(piperazin-1-yl)-7,8-dihydropurin-9-ylmethyl]benzonitrile trifluoroacetic acid salt], 2.92 nM. On to `CC#CCn1c(=O)n(CC2CC2)c2ncnc(N3CCNCC3)c21` [Example 72, 7-(2-Butynyl)-9-cyclopropylmethyl-6-(piperazin-1-yl)-7,9-dihydropurin-8-one trifluoroacetic acid salt], for which half-maximal inhibition (IC50) was put at 141 nM.
